Measurements as given in ChEMBL document CHEMBL1697731, “Cheminformatics analysis of assertions mined from literature that describe drug-induced liver injury in different species” (Chem Res Toxicol, 2010).

Legend:
Hepatotoxicity [1] = assay: Literature-mined compound from Fourches et al multi-species drug-induced liver injury (DILI) dataset, effect in non-rodents
Hepatotoxicity [2] = assay: Literature-mined compound from Fourches et al multi-species drug-induced liver injury (DILI) dataset, effect in rodents; conditions: rodentia
Hepatotoxicity [3] = assay: Literature-mined compound from Fourches et al multi-species drug-induced liver injury (DILI) dataset, effect in humans; conditions: human

SMILES | Hepatotoxicity (Hepatotoxicity [1]) | Hepatotoxicity (Hepatotoxicity [2]) | Hepatotoxicity (Hepatotoxicity [3]) | Hepatotoxicity (Hepatotoxicity [1]; Liver) | Hepatotoxicity (Hepatotoxicity [2]; Liver) | Hepatotoxicity (Hepatotoxicity [3]; Liver)
CCC1(c2ccccc2)C(=O)NC(=O)N(C)C1=O (stereo not drawn) [MEPHOBARBITAL] | no drug-induced liver injury reported | drug-induced liver injury reported | no drug-induced liver injury reported |  |  | 
CCN[C@@H]1C[C@H](N)[C@@H](O[C@H]2OC(CN)=CC[C@H]2N)[C@H](O)[C@H]1O[C@H]1OC[C@](C)(O)[C@H](NC)[C@H]1O [NETILMICIN] | no drug-induced liver injury reported | drug-induced liver injury reported | drug-induced liver injury reported |  |  | 
Clc1ccc(C(c2ccccc2Cl)C(Cl)Cl)cc1 (stereo not drawn) [MITOTANE] | drug-induced liver injury reported | no drug-induced liver injury reported | drug-induced liver injury reported |  |  | 
O=C(/C=C/c1ccc(O)c(O)c1)O[C@@H]1C[C@@](OC(=O)/C=C/c2ccc(O)c(O)c2)(C(=O)O)C[C@@H](O)[C@@H]1O [CYNARIN] | no drug-induced liver injury reported | drug-induced liver injury reported | no drug-induced liver injury reported |  |  | 
CN1CC[C@H](c2c(O)cc(O)c3c(=O)cc(-c4ccccc4Cl)oc23)[C@H](O)C1 [ALVOCIDIB] | no drug-induced liver injury reported | no drug-induced liver injury reported | drug-induced liver injury reported |  |  | 
CC1=C2C[C@H]3[C@@H](CC=C4C[C@@H](O)CC[C@@]43C)[C@@H]2CC[C@]12O[C@@H]1C[C@H](C)CN[C@H]1[C@H]2C [CYCLOPAMINE] | no drug-induced liver injury reported | no drug-induced liver injury reported | drug-induced liver injury reported |  |  | 
C=C/C=C\[C@H](C)[C@H](OC(N)=O)[C@@H](C)[C@H](O)[C@@H](C)C/C(C)=C\[C@H](C)[C@@H](O)[C@@H](C)/C=C\[C@@H](O)C[C@@H]1OC(=O)[C@H](C)[C@@H](O)[C@H]1C [DISERMOLIDE] | no drug-induced liver injury reported | no drug-induced liver injury reported | drug-induced liver injury reported |  |  | 
COc1ccc2c3c1O[C@H]1[C@@H](O)C=C[C@H]4[C@@H](C2)N(C)CC[C@@]341 [CODEINE] |  |  |  | no drug-induced liver injury reported | drug-induced liver injury reported | drug-induced liver injury reported
Cc1nc2n(c(=O)c1CCN1CCC(c3noc4cc(F)ccc34)CC1)CCCC2 [RISPERIDONE] | no drug-induced liver injury reported | no drug-induced liver injury reported | drug-induced liver injury reported |  |  | 
C=C[C@H]1C[N@@]2CC[C@H]1C[C@@H]2[C@@H](O)c1ccnc2ccc(OC)cc12 [QUINIDINE] | no drug-induced liver injury reported | drug-induced liver injury reported | drug-induced liver injury reported |  |  | 
FC(F)OC(F)C(F)(F)F (stereo not drawn) | no drug-induced liver injury reported | drug-induced liver injury reported | drug-induced liver injury reported |  |  | 
C=CCC1(C(C)C)C(=O)NC(=O)NC1=O [APROBARBITAL] | no drug-induced liver injury reported | drug-induced liver injury reported | no drug-induced liver injury reported |  |  | 
C[C@H]1C[C@H]2[C@@H]3CCC4=CC(=O)C=C[C@]4(C)[C@@]3(F)[C@@H](O)C[C@]2(C)[C@@]1(O)C(=O)CO [BETAMETHASONE] | no drug-induced liver injury reported | drug-induced liver injury reported | no drug-induced liver injury reported |  |  | 
CN1C(=O)CC(=O)N(c2ccccc2)c2cc(Cl)ccc21 [CLOBAZAM] | no drug-induced liver injury reported | no drug-induced liver injury reported | drug-induced liver injury reported |  |  | 
CN(C)C(=O)Oc1cccc([N+](C)(C)C)c1.[Br-] [NEOSTIGMINE BROMIDE] | no drug-induced liver injury reported | drug-induced liver injury reported | no drug-induced liver injury reported |  |  | 
Cc1ncc(C[n+]2csc(CCO)c2C)c(N)n1 [THIAMINE ION] |  |  |  | no drug-induced liver injury reported | drug-induced liver injury reported | drug-induced liver injury reported
CC[C@H]1[C@@H]2C[C@H]3[C@@H]4N(C)c5ccccc5[C@]45C[C@@H]([C@@H]2[C@H]5O)N3[C@@H]1O [AJMALINE] | no drug-induced liver injury reported | no drug-induced liver injury reported | drug-induced liver injury reported |  |  | 
Cc1ccnc2c1NC(=O)c1cccnc1N2C1CC1 [NEVIRAPINE] | no drug-induced liver injury reported | no drug-induced liver injury reported | drug-induced liver injury reported |  |  | 
COc1ccccc1Oc1c(NS(=O)(=O)c2ccc(C(C)(C)C)cc2)nc(-c2ncccn2)nc1OCCO [BOSENTAN] | drug-induced liver injury reported | drug-induced liver injury reported | drug-induced liver injury reported |  |  | 
O=C(O)CCCc1ccc(N(CCCl)CCCl)cc1 [CHLORAMBUCIL] | no drug-induced liver injury reported | drug-induced liver injury reported | drug-induced liver injury reported |  |  | 
COc1ccc(Cl)cc1C(=O)NCCc1ccc(S(=O)(=O)NC(=O)NC2CCCCC2)cc1 [GLYBURIDE] | no drug-induced liver injury reported | drug-induced liver injury reported | drug-induced liver injury reported |  |  | 
c1ccc(-c2ccc(C(c3ccccc3)n3ccnc3)cc2)cc1 (stereo not drawn) [BIFONAZOLE] | no drug-induced liver injury reported | drug-induced liver injury reported | no drug-induced liver injury reported |  |  | 
O=C(OOC(=O)c1ccccc1)c1ccccc1 [BENZOYL PEROXIDE] | no drug-induced liver injury reported | drug-induced liver injury reported | no drug-induced liver injury reported |  |  | 
Cc1cc2c(cc1CC(=O)c1sccc1S(=O)(=O)Nc1onc(C)c1Cl)OCO2 [SITAXENTAN] | no drug-induced liver injury reported | no drug-induced liver injury reported | drug-induced liver injury reported |  |  | 
Clc1c(Cl)c(Cl)c(Cl)c(Cl)c1Cl [PERCHLOROBENZENE] | no drug-induced liver injury reported | drug-induced liver injury reported | drug-induced liver injury reported |  |  | 
OCC(CO)N[C@H]1C[C@](O)(CO)[C@@H](O)[C@H](O)[C@H]1O [VOGLIBOSE] | no drug-induced liver injury reported | drug-induced liver injury reported | drug-induced liver injury reported |  |  | 
